# Reference: patent US12453349B2, “Compositions comprising pyridine carboxylate herbicides and 4-hydroxyphenyl-pyruvate dioxygenase (HPPD) inhibitor herbicides” (Corteva Agriscience LLC, priority 2018, dated 2025)
# Values joined by “and” are separate entries in the source; they are usually repeats but may differ in a detail not shown here. Equal entries are not always repeated.
# How the values were obtained:
# Format in all cases: in vivo
# [1] = system: SASKR, Salsola kali (Russian thistle); assay: Greenhouse postemergence herbicidal effect, visual injury 20-22 d after application
# Source text: (§1) Seeds of the desired test plant species were planted in a 90:10% v/v (volume/volume) mixture of PRO-MIX® BX (Premier Tech Horticulture, Quakertown, PA, USA) and PROFILE® GREENS GRADE™ (Profile Products LLC, Buffalo Grove, IL, USA) planting mixture, which typically has a pH of 5.2 to 6.2 and an organic matter content of at least 50 percent, in plastic pots with a surface area of 103.2 square centimeters (cm^2). In some aspects, to help ensure good germination and healthy plants, a fungicide treatment and/or other chemical or physical treatment was applied. The plants were grown for 7-36 days (d) in a greenhouse with an approximate 14-hour (h) photoperiod which was maintained at about 23° C. during the day and 22° C. during the night. Nutrients and water were added on a regular basis and supplemental lighting was provided with overhead metal halide 1000-Watt lamps as necessary. The plants were employed for testing when they reached the second or third true leaf stage.
# (§2) Emulsifiable concentrates of each of each pyridine carboxylate herbicide (Compound A or Compound B) were prepared at 100 grams acid equivalent per liter (g ae/L). The emulsifiable concentrates also included a safener, cloquintocet mexyl, at 120 grams active ingredient per liter (g ai/L). An aliquot of each emulsifiable concentrate was placed in a 25 mL glass vial and diluted with an aqueous mixture of 1.25% (v/v) ACTIROB® B esterified rapeseed oil (Bayer Crop Science, Research Triangle Park, NC, USA) or MSO® Concentrate with LECI-TECH® methylated soybean oil (Loveland Products, Loveland, CO, USA) to obtain concentrated stock solutions at the highest application rate for each herbicide, based upon a 12 milliliter (mL) application volume at a rate of 187 liters per hectare (L/ha). The concentrated stock solutions were further diluted with an aqueous mixture of 1.25% v/v ACTIROB® B or MSO® Concentrate with LECI-TECH® to obtain stock solutions at reduced application rates for each herbicide. Spray solutions of the herbicide combinations (Compound A or Compound B plus HPPD inhibitor herbicide) were prepared by adding weighed amounts or aliquots of the HPPD inhibitor herbicides to the stock solutions of Compound A or Compound B to form 12-mL spray solutions in two-way combinations.
# (§3) The spray solutions were applied to the plant material with an overhead Mandel track sprayer equipped with 8002E nozzles calibrated to deliver 187 L/ha over an application area of 0.503 square meters (m^2) at a spray height of 18 inches (43 centimeters (cm)) above the average plant canopy. Control plants were sprayed in the same manner with the solvent blank. All pyridine carboxylate herbicide (component a) application rates are given as “g ae/ha” and all HPPD inhibitor herbicide (component b) application rates are given as “g ai/ha.”
# (§4) The treated plants and control plants were placed in a greenhouse as described above and watered by sub-irrigation to prevent wash-off of the test compounds. After 20-22 d, the condition of the test plants as compared with that of the control plants was determined visually and scored on a scale of 0 to 100 percent where 0 corresponds to no injury and 100 corresponds to complete kill.
# [2] = system: AMARE, Amaranthus retroflexus (pigweed); assay: as above
# Source text: as §1, §2, §3, §4
# [3] = system: POLCO, Polygonum convolvulus (wild buckwheat); assay: as above
# Source text: as §1, §2, §3, §4
# [4] = system: SINAR, Sinapis arvensis (wild mustard); assay: as above
# Source text: as §1, §2, §3, §4
# [5] = system: CIRAR, Cirsium arvense (Canadian thistle); assay: as above
# Source text: as §1, §2, §3, §4
# [6] = system: BRSNW, Brassica napus (winter rape); assay: as above
# Source text: as §1, §2, §3, §4
# [7] = system: KCHSC, Kochia scoparia (kochia); assay: as above; conditions: Bassia scoparia, post-emergence, read-out: % visual injury Obs
# Source text: as §1, §2, §3, §4
# [8] = system: CHEAL, Chenopodium album L. (common lambsquarters); assay: as above
# Source text: as §1, §2, §3, §4
# [9] = system: MATCH, Matricaria chamomilla (wild chamomile); assay: as above
# Source text: as §1, §2, §3, §4
# [10] = system: TRZAS, Triticum aestivum (spring wheat); assay: Greenhouse postemergence phytotoxicity on crop, visual injury 20-22 d after application
# Source text: as §1, §2, §3, §4
# [11] = system: HORVS, Hordeum vulgare (spring barley); assay: as above
# Source text: as §1, §2, §3, §4
# [12] = system: ABUTH, Abutilon theophrasti (velvetleaf); assay: Greenhouse postemergence herbicidal effect, visual injury 20-22 d after application
# Source text: as §1, §2, §3, §4
# [13] = system: VIOTR, Viola tricolor (wild pansy); assay: as above
# Source text: as §1, §2, §3, §4
# [14] = system: ECHCG, Echinochloa crus-galli (barnyard grass); assay: as above
# Source text: as §1, §2, §3, §4
# [15] = system: SETFA, Setaria faberi (giant foxtail); assay: as above
# Source text: as §1, §2, §3, §4
# [16] = system: DIGSA, Digitaria sanguinalis (large crabgrass); assay: as above
# Source text: as §1, §2, §3, §4
# [17] = system: STEME, Stellaria media (chickweed); assay: as above
# Source text: as §1, §2, §3, §4
# [18] = system: BRSNN, Brassica napus (spring rape); assay: as above
# Source text: as §1, §2, §3, §4
# [19] = system: LOLMU, Lolium multiflorum (Italian ryegrass); assay: as above
# Source text: as §1, §2, §3, §4
# [20] = system: IPOHE, Ipomoea hederacea (ivyleaf morningglory); assay: as above
# Source text: as §1, §2, §3, §4
# [21] = system: EPHHL, Euphorbia heterophylla (poinsettia); assay: as above
# Source text: as §1, §2, §3, §4
# [22] = system: HELAN, Helianthus annuus (common sunflower); assay: as above
# Source text: as §1, §2, §3, §4
smiles,measurement,setting,value
"CS(=O)(=O)c1ccc(C(=O)C2C(=O)CCCC2=O)c(Cl)c1COCC(F)(F)F [Tembotrione, 2-[2-chloro-4-(methylsulfonyl)-3-[(2,2,2-trifluoroethoxy)methyl]benzoyl]-1,3-cyclohexanedione]",% visual injury Obs,[1]; Tembotrione 25 g ai/ha,78%
same,% visual injury Obs,[2]; Tembotrione 25 g ai/ha,100%
same,% visual injury Obs,[3]; Tembotrione 25 g ai/ha,25%
same,% visual injury Obs,[4]; Tembotrione 25 g ai/ha,95%
same,% visual injury Obs,[5]; Tembotrione 25 g ai/ha,75%
same,% visual injury Obs,[6]; Tembotrione 25 g ai/ha,88%
same,pest or weed control at 25 g/ha,"[7]; KCHSC, Tembotrione 25 g ai/ha",48%
same,% visual injury Obs,[8]; Tembotrione 25 g ai/ha,100%
same,% visual injury Obs,[9]; Tembotrione 25 g ai/ha,73%
"Cc1c(C(=O)c2cnn(C)c2O)ccc(S(C)(=O)=O)c1C1=NOCC1 [Topramezone, [3-(4,5-dihydro-3-isoxazolyl)-2-methyl-4-(methylsulfonyl)phenyl] (5-hydroxy-1-methyl-1H-pyrazol-4-yl) methanone]",% visual injury Obs,[10]; Topramezone 40 g ai/ha,33%
same,% visual injury Obs,[11]; Topramezone 40 g ai/ha,38%
same,% visual injury Obs,[2]; Topramezone 40 g ai/ha,100%
same,% visual injury Obs,[3]; Topramezone 40 g ai/ha,43%
same,% visual injury Obs,[4]; Topramezone 40 g ai/ha,100%
same,% visual injury Obs,[5]; Topramezone 40 g ai/ha,20%
same,% visual injury Obs,[6]; Topramezone 40 g ai/ha,98%
same,pest or weed control at 40 g/ha,[7],35%
same,% visual injury Obs,[8]; Topramezone 40 g ai/ha,100%
same,% visual injury Obs,[9]; Topramezone 40 g ai/ha,30%
"C#CCOC(=O)c1nc(-c2ccc3cc[nH]c3c2F)c(F)c(N)c1Cl [Compound B, propargyl 4-amino-3-chloro-5-fluoro-6-(7-fluoro-1H-indol-6-yl)pyridine-2-carboxylate]",% visual injury Obs,[12]; Compound B 7.5 g ae/ha,68%
same,% visual injury Obs,[12]; Compound B 10 g ae/ha,68%
same,% visual injury Obs,[13]; Compound B 7.5 g ae/ha,10%
same,% visual injury Obs,[13]; Compound B 10 g ae/ha,40%
same,% visual injury Obs,[5]; Compound B 7.5 g ae/ha,45%
same,% visual injury Obs,[5]; Compound B 10 g ae/ha,45%
"CS(=O)(=O)c1ccc(C(=O)C2=C(Sc3ccccc3)C3CCC(C3)C2=O)c(Cl)c1 (stereo not drawn) [Benzobicyclon, 3-[2-chloro-4-(methylsulfonyl)benzoyl]-4-(phenylthio)bicyclo[3.2.1]oct-3-en-2-one]",% visual injury Obs,[14]; Benzobicyclon 50 g ai/ha,0%
same,% visual injury Obs,[15]; Benzobicyclon 50 g ai/ha,0%
same,% visual injury Obs,[16]; Benzobicyclon 50 g ai/ha,10%
same,% visual injury Obs,[17]; Benzobicyclon 50 g ai/ha,28%
same,% visual injury Obs,[18]; Benzobicyclon 50 g ai/ha,8%
same,pest or weed control at 50 g/ha,"[7]; KCHSC, Benzobicyclon 50 g ai/ha",0%
same,% visual injury Obs,[19]; Benzobicyclon 50 g ai/ha,0%
"N#CCOC(=O)c1nc(-c2ccc3cc[nH]c3c2F)c(F)c(N)c1Cl [Compound A, cyanomethyl 4-amino-3-chloro-5-fluoro-6-(7-fluoro-1H-indol-6-yl)pyridine-2-carboxylate]",% visual injury Obs,[10]; Compound A 7.5 g ae/ha,0%
same,% visual injury Obs,[10]; Compound A 10 g ae/ha,0%
same,% visual injury Obs,[11]; Compound A 7.5 g ae/ha,8% and 0%
same,% visual injury Obs,[11]; Compound A 10 g ae/ha,0%
same,% visual injury Obs,[1]; Compound A 7.5 g ae/ha,60%
same,% visual injury Obs,[1]; Compound A 10 g ae/ha,63%
same,% visual injury Obs,[14]; Compound A 7.5 g ae/ha,80%
same,% visual injury Obs,[14]; Compound A 10 g ae/ha,88%
same,% visual injury Obs,[2]; Compound A 7.5 g ae/ha,80% and 90% and 70%
same,% visual injury Obs,[2]; Compound A 10 g ae/ha,85% and 90%
same,% visual injury Obs,[20]; Compound A 7.5 g ae/ha,5%
same,% visual injury Obs,[20]; Compound A 10 g ae/ha,0%
same,% visual injury Obs,[15]; Compound A 7.5 g ae/ha,60%
same,% visual injury Obs,[15]; Compound A 10 g ae/ha,78%
same,% visual injury Obs,[16]; Compound A 7.5 g ae/ha,13%
same,% visual injury Obs,[16]; Compound A 10 g ae/ha,25%
same,% visual injury Obs,[21]; Compound A 7.5 g ae/ha,91%
same,% visual injury Obs,[21]; Compound A 10 g ae/ha,83%
same,% visual injury Obs,[12]; Compound A 7.5 g ae/ha,40%
same,% visual injury Obs,[12]; Compound A 10 g ae/ha,48%
same,% visual injury Obs,[3]; Compound A 10 g ae/ha,70% and 43%
same,% visual injury Obs,[4]; Compound A 7.5 g ae/ha,83% and 85%
same,% visual injury Obs,[4]; Compound A 10 g ae/ha,88%
same,% visual injury Obs,[13]; Compound A 7.5 g ae/ha,3%
same,% visual injury Obs,[13]; Compound A 10 g ae/ha,3%
same,% visual injury Obs,[17]; Compound A 7.5 g ae/ha,90%
same,% visual injury Obs,[17]; Compound A 10 g ae/ha,85%
same,% visual injury Obs,[6]; Compound A 7.5 g ae/ha,35% and 63%
same,% visual injury Obs,[6]; Compound A 10 g ae/ha,40% and 68%
same,% visual injury Obs,[18]; Compound A 10 g ae/ha,45% and 60%
same,pest or weed control at 7.5 g/ha,"[7]; KCHSC, Compound A 7.5 g ae/ha",63%
same,pest or weed control at 10 g/ha,"[7]; KCHSC, Compound A 10 g ae/ha",70%
same,% visual injury Obs,[22]; Compound A 7.5 g ae/ha,83%
same,% visual injury Obs,[22]; Compound A 10 g ae/ha,88%
same,% visual injury Obs,[19]; Compound A 7.5 g ae/ha,8%
same,% visual injury Obs,[19]; Compound A 10 g ae/ha,3%
same,% visual injury Obs,[8]; Compound A 7.5 g ae/ha,75% and 70%
same,% visual injury Obs,[8]; Compound A 10 g ae/ha,80% and 78%
same,% visual injury Obs,[9]; Compound A 7.5 g ae/ha,10% and 18%
same,% visual injury Obs,[9]; Compound A 10 g ae/ha,20% and 30%
